In paper PMC11085308, “Design, Synthesis and Biological Activity of Novel Methoxy- and Hydroxy-Substituted N-Benzimidazole-Derived Carboxamides” (Molecules, 2024):
Converted amounts (≈) assume the structure as drawn. Like-named read-outs stand apart in the source and are kept apart here.

What was measured:
H460 (lung carcinoma) = test: Antiproliferative activity in vitro, MTT assay, 72 h; format: cell-based; details: Homo sapiens, NCI-H460, 72 h incubation
Description: (§1) The experiments were carried out on four human cell lines which are derived from three cancer types: H460 (lung carcinoma), HCT 116 (colorectal carcinoma), MCF-7 (human breast cancer) and the non-cancerous cell line HEK 293 (human embryonic kidney).
(§2) The results are compared with the known antiproliferative agents doxorubicin and etoposide. […] Therefore, it is not clear whether the observed antiproliferative activity is due to the biological activity of the compounds or to precipitation.
(§3) The experiments were performed on four human cell lines, including HCT 116 (colon carcinoma), H 460 (lung carcinoma), MCF-7 (breast carcinoma) and HEK 293 (human embryonic kidney cells), in line with previously published experimental procedures. Briefly, the cells were grown in DMEM medium with the addition of 10% fetal bovine serum (FBS), 2 mM of L-glutamine, 100 U/mL of penicillin and 100 µg/mL of streptomycin and cultured as monolayers at 37 °C in a humidified atmosphere with 5% CO2. Cells were seeded at 2 × 10^3 cells/well in standard 96-well microtiter plates and left to attach for 24 h. The next day, a test compound was added in five serial 10-fold dilutions. The rate of cell growth was evaluated after 72 h of incubation with MTT assays. […] Each test was performed in quadruplicate in at least two individual experiments.

[1] = system: HCT 116 (colorectal carcinoma); test: as above; format: cell-based; details: Homo sapiens, 72 h incubation, '-' with footnote a = did not show biological activity due to precipitation
Description: as §1, §2, §3

[2] = system: MCF-7 (human breast cancer); test: as above; format: cell-based; details: MCF7, 72 h incubation
Description: as §1, §2, §3

[3] = system: HEK 293 (human embryonic kidney); test: Antiproliferative activity in vitro, MTT assay, 72 h, non-cancerous cell line; format: cell-based; details: HEK293, 72 h incubation, '-' with footnote a = did not show biological activity due to precipitation
Description: as §1, §2, §3

[4] = Ferric reducing/antioxidant power (FRAP assay); set-up: FRAP: unit not given here; details: for FRAP: Fe2+ equivalents, triplicate; for FRAP ferric reducing/antioxidant power, in words: compared to the standard BHT
Description: (§4) The synthesized benzazole acrylonitrile derivatives were screened for their antioxidative potency by using in vitro assays, namely DPPH and ABTS as free radical scavenging assays and FRAP as a ferric reducing/antioxidant power assay.
The antioxidant activity of a substance is directly related to its reducing power.
The FRAP method was carried out according to previously described procedures with some modifications to make it compatible with an assay on a 96-well microplate. All results were expressed as Fe^2+ equivalents (Fe^2+ µmol). Ferrous sulphate (FeSO4 × 7H2O) was used to develop a standard curve of 20–2000 µmol/l for the FRAP test.

[5] = DPPH free radical scavenging assay; details: compared to the standard BHT
Description: as §4
The well-known antioxidant butylated hydroxytoluene (BHT) was used as a standard for comparing activity during testing. The DPPH assay is a standard commonly used test for the in vitro assessment of the antioxidant capacity of novel compounds by using their ability to scavenge the stable radical 1,1-diphenyl-picrylhydrazyl. […] Another test used to evaluate the antioxidative capacity of novel compounds was the ABTS test, by which their activity was evaluated by scavenging the stable radical 3-ethylbenzthiazoline-6-sulphonic acid.
Determination of the reducing activity of the stable radical 1,1-diphenyl-picrylhydrazyl (DPPH):
The reducing activity of the investigated systems was measured by the DPPH method according to previously described procedures with modifications to ensure their use on a 96-well microplate. Briefly, equal volumes of various concentrations of the tested molecules (dissolved in DMSO) were added to a solution of DPPH (final concentration of 50 µM in absolute ethanol). Ethanol and DMSO were used as control solutions in line with earlier reports. The radical scavenging activity was calculated using the following formula:[(A517 control − A517 compound)/A517 control] × 100.
The IC50 values were calculated from dose–response curves using nonlinear regression analysis with the GraphPad Prism 8 Ink. program. All measurements were carried out in triplicate.

HCT 116 cells = test: Antioxidative activity assay in cells (ROS level, DCFH-DA fluorescence); format: cell-based, human; details: HCT 116, TBHP 100 µM plus 10 µM compound, 1 h, compared to NAC
Description: We further selected compounds 9, 10, 32 and 36, showing quite pronounced antioxidant capacity in the DPPH and FRAP assays, in order to test their pro- and antioxidant activity in tumor cells. In order to test the antioxidant activity of the selected compounds in tumor cells (Figure 2), we treated HCT 116 cells with tert-butyl hydroperoxide (TBHP), a substance commonly used for inducing oxidative stress in cells and tissues, alone or in combination with a known antioxidative agent, N-acetyl-L-cysteine (NAC), or the tested compounds. We measured the formation of oxidative stress byproducts using 2′,7′-dichlorodihydrofluorescein diacetate (DCFH-DA).
For the antioxidative activity assay, 2.5 × 10^4 cells were seeded into 96-well microtiter plates and left to attach for 24 h. The next day, cells were washed with PBS and incubated in FBS-free DMEM medium with 25 µM of DCFH-DA fluorescence dye. After 45 min of incubation, the medium was discarded, and the cells were washed with PBS.
After the washing step, the cells were incubated with 100 µM of tert-butyl hydroperoxide (TBHP) alone or in combination with antioxidative agents (50 mM of N-Acetyl-L-cysteine-NAC or 10 µM of the tested compounds) in PBS for 1 h at 37 °C. DCFH-DA fluorescence was recorded on a microplate fluorimeter reader (Tecan) with an excitation beam of 485 nm, while the emitted fluorescence was collected at 535 nm. All tests were presented as the means of two independent measurements carried out in triplicate. One-way ANOVA with Tukey’s post hoc test was used for statistical analysis: *—p < 0.05; **—p < 0.01; ***—p < 0.001.
Figure 2 Antioxidative activity of selected systems. HCT 116 cells were treated with a combination of H2O2 (4 mM) and N-acetyl-L-cysteine (NAC, 10 mM) or the tested compounds (10 mM). Treatment with H2O2 (4 mM) alone was used as a control for ROS induction. The level of reactive oxygen species (ROS) was measured with the fluorescent dye DCFH-DA using a fluorimeter. The data presented here are the results of three independent measurements carried out in triplicate. A one-way ANOVA with Tukey’s post hoc test was used for statistical analysis, *** p < 0.001; ns—not significant.

S. aureus ATCC 29213 = test: Antibacterial activity in vitro, broth microdilution MIC; format: cell-based, Staphylococcus aureus; details: for MIC S. aureus ATCC 29213: broth microdilution, 16–24 h at 37 °C, unit inferred
Description: (§5) The in vitro antibacterial activity of the synthesized benzamides 7–12 and 31–37 was evaluated against a panel of eight different bacterial strains. The Gram-positive bacterial strains comprised S. aureus, S. pneumoniae and E. faecalis, and the panel of Gram-negative bacteria consisted of E. coli, K. pneumoniae, A. baumannii and P. aeruginosa.
(§6) The selected bacterial strains were Gram-negative Escherichia coli (ATCC 25922) and Gram-positive Staphylococcus aureus (ATCC 29213) and S. Pneumoniae (ATCC 49619). The Saccharomyces cerevisiae ATCC 7752 strain was tested as a eukaryotic model organism. Synthesized compounds were prepared as 10 mM DMSO solutions and tested in a final concentration range of 100–0.2 µM [39].
(§7) Broth microdilution testing was performed according to CLSI (Clinical Laboratory Standards Institute) guidelines. The MIC (minimal inhibitory concentration) value was defined as the last tested concentration of a compound at which there is no visible growth of bacteria. Inoculums for each microorganism were prepared using the direct colony suspension method, where broth solutions that achieved turbidity equivalent to 0.5 McFarland standards were additionally diluted 100× with cation-adjusted MH media (Becton Dickinson). All test plates were incubated for 16–24 h at 37 °C.

A. baumannii ATCC 17978 = test: as above; format: cell-based; details: 16–24 h at 37 °C, unit inferred
Description: as §5, §6, §7

E. faecalis ATCC 29212 = test: as above; format: cell-based; details: for MIC E. faecalis ATCC 29212: broth microdilution, 16–24 h at 37 °C, unit inferred
Description: as §5, §6, §7

P. aeruginosa ATCC 27853 = test: as above; format: cell-based; details: 16–24 h at 37 °C, unit inferred
Description: as §5, §6, §7

E. coli ATCC 25922 = test: as above; format: cell-based, Escherichia coli; details: 16–24 h at 37 °C, unit inferred
Description: as §5, §6, §7

E. coli efflux del. = test: microbe, parasite or virus in culture; format: cell-based, Escherichia coli; details: broth microdilution, 16–24 h at 37 °C; unit inferred
Description: as §5, §6, §7

[6] = system: H460, HCT 116, MCF-7, HEK 293; test: Antiproliferative activity in vitro, MTT assay, range over the tested cell lines; format: cell-based, human; details: read-out: IC50 range against the tested cell lines
Description: as §1, §2, §3

| SMILES | IC50 (H460 (lung carcinoma)) | IC50 [1] | IC50 [2] | IC50 [3] | FRAP [4] | FRAP ferric reducing/antioxidant power, in words [4] | DPPH free radical scavenging activity, in words [5] | Level of ROS in cells under induced oxidative stress (HCT 116 cells) | MIC S. aureus ATCC 29213 (S. aureus ATCC 29213) | MIC A. baumannii ATCC 17978 (A. baumannii ATCC 17978) | MIC E. faecalis ATCC 29212 (E. faecalis ATCC 29212) | MIC P. aeruginosa ATCC 27853 (P. aeruginosa ATCC 27853) | MIC E. coli ATCC 25922 (E. coli ATCC 25922) | MIC E. coli efflux del. (E. coli efflux del.) | IC50 ([6]; Homo sapiens) | IC50 [6] | Selectivity of antibacterial activity, in words (E. faecalis ATCC 29212; against the Gram-positive strain E. faecalis) | melting point | MIC (S. aureus ATCC 29213; Staphylococcus aureus, ATCC29213, read-out: MIC S. aureus) |
| --- | --- | --- | --- | --- | --- | --- | --- | --- | --- | --- | --- | --- | --- | --- | --- | --- | --- | --- | --- |
| Cn1c(NC(=O)c2cc(O)c(O)c(O)c2)nc2ccccc21 [Compound 9, 3,4,5-trihydroxy-N-(1-methyl-1H-benzo[d]imidazol-2-yl)benzamide] | > 100 µM | > 100 µM | 35.5 ± 5.2 µM | 32.3 ± 6.5 µM | 4036.77 ± 8.82 | excellent in vitro antioxidant activity | significantly improved | reducing the level of ROS in the cells | 64 µM (≈ 19.2 µg/mL) | > 64 µM | 64 µM (≈ 19.2 µg/mL) | > 64 µM | > 64 µM | > 64 µM |  |  |  |  |  |
| COc1ccc(C(=O)Nc2nc3cc(C#N)ccc3n2CC(C)C)c(O)c1 [Compound 10, N-(5-cyano-1-isobutyl-1H-benzo[d]imidazol-2-yl)-2-hydroxy-4-methoxybenzamide] | 4.4 ± 0.4 µM | 3.9 ± 0.4 µM | 2.2 ± 0.9 µM | 4.4 ± 0.3 µM | 123.61 ± 2.52 |  |  | did not effectively scavenge ROS | > 64 µM | > 64 µM | > 64 µM | > 64 µM | > 64 µM | > 64 µM | 2.2 to 4.4 µM | 1.2 to 5.3 µM |  |  |  |
| Cn1c(NC(=O)c2ccccc2O)nc2cc(C#N)ccc21 [Compound 11, N-(5-cyano-1-methyl-1H-benzo[d]imidazol-2-yl)-2-hydroxybenzamide] | > 100 µM | 3.7 ± 0.04 µM | 1.2 ± 0.3 µM | 5.3 ± 0.6 µM | 422.55 ± 8.82 |  |  |  | > 64 µM | > 64 µM | 32 µM (≈ 9.35 µg/mL) | > 64 µM | > 64 µM | > 64 µM | 1.2 to 5.3 µM |  | selective antibacterial activity |  |  |
| O=C(Nc1nc2ccccc2[nH]1)c1cc(O)c(O)c(O)c1 [Compound 32, N-(1H-benzo[d]imidazol-2-yl)-3,4,5-trihydroxybenzamide] | > 100 µM | > 100 µM | 39.8 ± 1.4 µM | 66 ± 1.7 µM | 3245.79 ± 16.38 | excellent in vitro antioxidant activity | significantly improved | reducing the level of ROS in the cells | > 64 µM | > 64 µM | > 64 µM | > 64 µM | > 64 µM | > 64 µM |  |  |  | 230 to 234 °C |  |
| Cn1c(NC(=O)c2cc(O)c(O)c(O)c2)nc2cc(C#N)ccc21 [Compound 36, N-(5-cyano-1-methyl-1H-benzo[d]imidazol-2-yl)-3,4,5-trihydroxybenzamide] | 48.3 ± 10.5 µM | 19.3 ± 6.4 µM | 4.8 ± 0.7 µM | 25.3 ± 0.7 µM | 2396.01 ± 35.27 | excellent in vitro antioxidant activity | significantly improved | reducing the level of ROS in the cells | 32 µM (≈ 10.4 µg/mL) | > 64 µM | 64 µM (≈ 20.8 µg/mL) | > 64 µM | > 64 µM | > 64 µM |  |  |  | 245 to 251 °C | 32 µM (≈ 10.4 µg/mL) |
